According to patent publication US20140128385A1 (NOVARTIS AG, priority 2011, published 2014):
Where a name gives a salt, the structure may show the parent alone.

Target: T1, BACE-2 (Homo sapiens, UniProt Q9Y5Z0)
T1 construct: Recombinant BACE-2 (extracellular domain, expressed in baculovirus and purified using standard methods); made in house
T1 sequence (Q9Y5Z0 63-473 limits assumed): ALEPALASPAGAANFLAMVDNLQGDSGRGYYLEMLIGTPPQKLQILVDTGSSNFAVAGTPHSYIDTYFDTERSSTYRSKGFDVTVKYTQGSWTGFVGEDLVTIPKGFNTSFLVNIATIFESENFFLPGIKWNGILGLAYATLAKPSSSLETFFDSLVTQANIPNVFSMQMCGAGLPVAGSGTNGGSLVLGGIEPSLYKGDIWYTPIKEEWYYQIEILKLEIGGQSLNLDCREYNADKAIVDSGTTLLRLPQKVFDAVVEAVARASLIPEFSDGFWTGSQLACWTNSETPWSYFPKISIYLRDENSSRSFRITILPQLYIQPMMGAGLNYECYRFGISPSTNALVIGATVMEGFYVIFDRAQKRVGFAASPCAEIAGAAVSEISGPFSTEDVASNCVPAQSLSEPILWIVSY
Assay: assay for inhibition of BACE-2
Type: biochemical

Row | SMILES | IC50 [nM]
1 | CC1(c2cccc(NC(=O)c3coc(C(F)(F)F)c3)c2)COCC(N)=N1 (centres unmarked) [Example 23, 5-Trifluoromethyl-furan-3-carboxylic acid [3-(5-amino-3-methyl-3,6-dihydro-2H-[1,4]oxazin-3-yl)-phenyl]-amide hydrochloride] | > 10000
2 | CC1(c2cccc(NC(=O)c3ccc(Br)cc3)c2)COCC(N)=N1 (centres unmarked) [Example 24, N-[3-(5-Amino-3-methyl-3,6-dihydro-2H-[1,4]oxazin-3-yl)-phenyl]-4-bromo-benzamide hydrochloride] | 1070
3 | CC1(c2cccc(NC(=O)C3CCCCC3)c2)COCC(N)=N1 (centres unmarked) [Example 25, Cyclohexanecarboxylic acid [3-(5-amino-3-methyl-3,6-dihydro-2H-[1,4]oxazin-3-yl)-phenyl]-amide hydrochloride] | > 10000
4 | CC1(c2cccc(NC(=O)C3CCC(F)(F)CC3)c2)COCC(N)=N1 (centres unmarked) [Example 26, 4,4-Difluoro-cyclohexanecarboxylic acid [3-(5-amino-3-methyl-3,6-dihydro-2H-[1,4]oxazin-3-yl)-phenyl]-amide hydrochloride] | > 10000
5 | Cc1ccc(C(=O)Nc2cccc(C3(C)COCC(N)=N3)c2)nc1 (centres unmarked) [Example 27, 5-Methyl-pyridine-2-carboxylic acid [3-(5-amino-3-methyl-3,6-dihydro-2H-[1,4]oxazin-3-yl)-phenyl]-amide hydrochloride] | 374
6 | CC1(c2cccc(NC(=O)c3cccnc3)c2)COCC(N)=N1 (centres unmarked) [Example 28, N-[3-(5-Amino-3-methyl-3,6-dihydro-2H-[1,4]oxazin-3-yl)-phenyl]-nicotinamide hydrochloride] | > 10000
7 | Cc1cc(Br)cnc1C(=O)Nc1cccc([C@]2(C)COCC(=N)N2)c1 [Example 29, 5-Bromo-3-methyl-pyridine-2-carboxylic acid [3-((R)-5-amino-3-methyl-3,6-dihydro-2H-[1,4]oxazin-3-yl)-phenyl]-amide hydrochloride] | 21
8 | COc1ccc(C(=O)Nc2cccc([C@]3(C)COCC(N)=N3)c2)nc1 [Example 30, 5-Methoxy-pyridine-2-carboxylic acid [3-((R)-5-amino-3-methyl-3,6-dihydro-2H-[1,4]oxazin-3-yl)-phenyl]-amide hydrochloride] | 367
9 | NC1=NC(CF)(c2cccc(NC(=O)c3ccc(Br)cn3)c2)COC1 (centres unmarked) [Example 31, 5-Bromo-pyridine-2-carboxylic acid [3-(5-amino-3-fluoromethyl-3,6-dihydro-2H-[1,4]oxazin-3-yl)-phenyl]-amide] | 130
10 | NC1=NC(CF)(c2cc(Cl)cc(NC(=O)c3ccc(Br)cn3)c2)COC1 (centres unmarked) [Example 32] | 1020
11 | NC1=N[C@](CF)(c2cccc(NC(=O)c3ccc(Br)cn3)c2)COC1 [Example 33, 5-Bromo-pyridine-2-carboxylic acid [3-((R)-5-amino-3-fluoromethyl-3,6-dihydro-2H-[1,4]oxazin-3-yl)-phenyl]-amide] | 90
12 | NC1=NC(c2cccc(NC(=O)c3ccc(Br)cn3)c2)(C(F)F)COC1 (centres unmarked) [Example 34, 5-Bromo-pyridine-2-carboxylic acid [3-(5-amino-3-difluoromethyl-3,6-dihydro-2H-[1,4]oxazin-3-yl)-phenyl]-amide hydrochloride] | 345
13 | NC1=NC(c2cccc(NC(=O)c3ccc(Cl)cn3)c2)(C(F)F)COC1 (centres unmarked) [Example 35] | 139
14 | N#Cc1ccc(C(=O)Nc2cccc(C3(C(F)F)COCC(N)=N3)c2)nc1 (centres unmarked) [Example 36] | 910
15 | Cc1cc(Br)cnc1C(=O)Nc1cccc(C2(C(F)F)COCC(N)=N2)c1 (centres unmarked) [Example 37] | 58
16 | Cc1cnc(C(=O)Nc2cccc(C3(C(F)F)COCC(N)=N3)c2)cn1 (centres unmarked) [Example 38] | 9010
17 | NC1=NC(c2cccc(NC(=O)c3ccc(C(F)(F)F)cn3)c2)(C(F)F)COC1 (centres unmarked) [Example 39] | 2970
18 | NC1=NC(c2cccc(NC(=O)c3ncc(C(F)(F)F)cc3Cl)c2)(C(F)F)COC1 (centres unmarked) [Example 40] | 2450
19 | Cc1cc(Cl)cnc1C(=O)Nc1cccc(C2(C(F)F)COCC(N)=N2)c1 (centres unmarked) [Example 41] | 28
20 | NC1=NC(c2cc(NC(=O)c3ccc(Br)cn3)ccc2F)(C(F)F)COC1 (centres unmarked) [Example 42, 5-Bromo-pyridine-2-carboxylic acid [3-(5-amino-3-difluoromethyl-3,6-dihydro-2H-[1,4]oxazin-3-yl)-4-fluoro-phenyl]-amide hydrochloride] | 53
21 | NC1=NC(c2cc(NC(=O)c3ccc(Cl)cn3)ccc2F)(C(F)F)COC1 (centres unmarked) [Example 43] | 28
22 | Cc1cc(Cl)cnc1C(=O)Nc1ccc(F)c([C@]2(C(F)F)COCC(N)=N2)c1 [Example 44] | 5
23 | Cc1cc(Br)cnc1C(=O)Nc1ccc(F)c([C@]2(C(F)F)COCC(N)=N2)c1 [Example 45] | 10
24 | NC1=N[C@@](c2cc(NC(=O)c3ncc(C(F)(F)F)cc3Cl)ccc2F)(C(F)F)COC1 [Example 46] | 130
25 | NC1=N[C@@](c2cc(NC(=O)c3ccc(C(F)(F)F)cn3)ccc2F)(C(F)F)COC1 [Example 47] | 251
26 | Cc1cnc(C(=O)Nc2ccc(F)c([C@]3(C(F)F)COCC(N)=N3)c2)cn1 [Example 48] | 511
27 | COc1ccc(C(=O)Nc2cccc([C@]3(C)CO[C@@](C)(C(F)(F)F)C(N)=N3)c2)nc1 [Example 67] | 27

Row | SMILES | IC50 [nM]
28 | C[C@@]1(c2cc(NC(=O)c3ccc(Br)cn3)ccc2F)CO[C@@](C)(C(F)(F)F)C(N)=N1 [Example 68] | 3
29 | COc1ccc(C(=O)Nc2ccc(F)c([C@]3(C)CO[C@@](C)(C(F)(F)F)C(N)=N3)c2)nc1 [Example 69] | 1
30 | C[C@@]1(c2cc(NC(=O)c3ncc(C#N)cn3)ccc2F)CO[C@@](C)(C(F)(F)F)C(N)=N1 [Example 70] | 4
31 | C[C@@]1(c2cc(NC(=O)c3ncc(Br)cn3)ccc2F)CO[C@@](C)(C(F)(F)F)C(N)=N1 [Example 71, 5-Bromo-pyrimidine-2-carboxylic acid [3-((3R,6R)-5-amino-3,6-dimethyl-6-trifluoromethyl-3,6-dihydro-2H-[1,4]oxazin-3-yl)-4-fluoro-phenyl]-amide hydrochloride] | 3
32 | C[C@@]1(c2cc(NC(=O)c3ccc(C#N)cn3)ccc2F)CO[C@@](C)(C(F)(F)F)C(N)=N1 [Example 73] | 27
33 | COCCOc1cnc(C(=O)Nc2ccc(F)c([C@]3(C)CO[C@@](C)(C(F)(F)F)C(N)=N3)c2)cn1 [Example 74] | 514
34 | CC1(C)OCC(c2cc(NC(=O)c3ccc(C#N)cn3)ccc2F)(C(F)F)N=C1N (centres unmarked) [Example 79, 5-Cyano-pyridine-2-carboxylic acid[3-(5-amino-3-difluoromethyl-6,6-dimethyl-3,6-dihydro-2H-[1,4]oxazin-3-yl)-4-fluoro-phenyl]-amide] | 316
35 | CC1(C)OCC(c2cc(NC(=O)c3ccc(Br)cn3)ccc2F)(C(F)F)N=C1N (centres unmarked) [Example 80] | 64
36 | NC1=NC(c2cc(NC(=O)c3ccc(Br)cn3)c(F)cc2F)(C(F)F)COC1 (centres unmarked) [Example 81] | 4290
37 | N#Cc1ccc(C(=O)Nc2cc(C3(C(F)F)COCC(N)=N3)c(F)cc2F)nc1 (centres unmarked) [Example 82] | 1230
38 | COc1cc(Br)cnc1C(=O)Nc1cc(C2(C(F)F)COCC(N)=N2)c(F)cc1F (centres unmarked) [Example 83] | 5880
39 | NC1=NC(c2cc(NC(=O)c3ncc(Br)cc3O)c(F)cc2F)(C(F)F)COC1 (centres unmarked) [Example 84] | 3440
40 | NC1=N[C@](CF)(c2cc(NC(=O)c3ccc(Cl)cn3)ccc2F)COC1 [Example 85, 5-Chloro-pyridine-2-carboxylic acid [3-((R)-5-amino-3-fluoromethyl-3,6-dihydro-2H-[1,4]oxazin-3-yl)-4-fluoro-phenyl]-amide hydrochloride] | 8
41 | NC1=NC(CF)(c2cc(NC(=O)c3ccc(Br)cn3)ccc2F)COC1 (centres unmarked) [Example 86] | 32
42 | NC1=NC(CF)(c2cc(NC(=O)c3ccc(Cl)cn3)ccc2F)COC1 (centres unmarked) [Example 87] | 25
43 | NC1=NC(CF)(c2cc(NC(=O)c3ncc(Cl)cc3Cl)ccc2F)COC1 (centres unmarked) [Example 88] | 12
44 | N#Cc1ccc(C(=O)Nc2ccc(F)c(C3(CF)COCC(N)=N3)c2)nc1 (centres unmarked) [Example 89] | 152
45 | Cc1cc(Br)cnc1C(=O)Nc1ccc(F)c(C2(CF)COCC(N)=N2)c1 (centres unmarked) [Example 90] | 11
46 | Cc1cc(Br)cnc1C(=O)Nc1ccc(F)c([C@]2(CF)COCC(N)=N2)c1 [Example 91] | 6
47 | Cc1cc(Cl)cnc1C(=O)Nc1ccc(F)c([C@]2(CF)COCC(N)=N2)c1 [Example 92] | 0.4
48 | Cl.[2H]c1nc(C(=O)Nc2ccc(F)c([C@]3(CF)COCC(N)=N3)c2)c(C([2H])([2H])[2H])c([2H])c1Cl [Example 93] | 1.4
49 | NC1=N[C@](CF)(c2cc(NC(=O)c3ncc(Br)cc3O)ccc2F)COC1 [Example 94] | 33
50 | COc1cc(Br)cnc1C(=O)Nc1ccc(F)c([C@]2(CF)COCC(N)=N2)c1 [Example 95] | 53
51 | NC1=N[C@@](c2cc(NC(=O)c3ccc(Br)cn3)ccc2F)(C(F)F)CCOC1 [Example 97] | 11
52 | N#Cc1ccc(C(=O)Nc2ccc(F)c(C3(C(F)(F)F)CCOCC(N)=N3)c2)nc1 (centres unmarked) [Example 98, 5-Cyano-pyridine-2-carboxylic acid [3-(3-amino-5-trifluoromethyl-2,5,6,7-tetrahydro-[1,4]oxazepin-5-yl)-4-fluoro-phenyl]-amide hydrochloride] | 144
53 | NC1=NC(c2cc(NC(=O)c3ccc(Br)cn3)ccc2F)(C(F)(F)F)CCOC1 (centres unmarked) [Example 99] | 37
